Measured values published in patent publication US20110263478A1, “SUR1 INHIBITORS FOR THERAPY” (priority 2008, published 2011).
“Also recorded” adds a separate entry of the source.

How the values were obtained:
[1] = test system: rats with spinal cord injury (SCI); assay: Rat cervical SCI model: hemorrhage / extravasated blood in cord; format: in vivo; conditions: 200 ng/h s.q.
Procedure: Constant infusion of a low-dose of drug was used to achieve sustained occupancy of only high-affinity receptors.
(§1) SCI injury model. This study was performed in accordance with the guidelines of the Institutional Animal Care and Use Committee. Adult female Long-Evans rats (275-350 gm) were anesthetized (Ketamine, 60 mg/kg plus Xylazine, 7.5 mg/kg, i.p.). The dura at C4-5 was exposed via a left hemilaminectomy. A hemi-cervical spinal cord contusion was created using a blunt force impactor (1.3-mm impactor head driven by a 10 gm weight dropped vertically 25 mm) (Soblo sky et al., 2001; Gensel et al., 2006). After SCI, animals were given 10 ml of glucose-free normal saline s.q. Rectal temperature was maintained at ˜37° C. using a servo-controlled warming blanket. Blood gases and serum glucose 10-15 min post-SCI were: pO2, 95±6 mm Hg; pCO2, 46±3 mm Hg; pH, 7.33±0.01; glucose 258±17 mg/dl in controls and pO2, 96±7 mm Hg; pCO2, 45±2 mm Hg; pH, 7.37±0.01; glucose 242±14 mg/dl in glibenclamide-treated animals.
(§2) Drug delivery. […] During the course of the project, slightly different formulations of drug were used, with the best results obtained using stock solutions made by placing 50 mg (or 25 mg) of drug into 10 ml DMSO, and infusion solutions made by placing 400 μl (or 800 μl) stock into 4.6 ml (or 4.2 ml) unbuffered saline (0.9% NaCl) and adjusting the pH to ˜8.5 using 0.1 N NaOH.
For in vivo gene suppression of SUR1, we used oligodeoxynucleotides that were phosphorothioated at 4 distal bonds to protect against endogenous nucleases (35). Within a few min of SCI, mini-osmotic pumps (Alzet 2002, 0.5 μl/h; Durect Corporation) with jugular vein catheters were implanted that delivered either scrambled sequence ODN (Scr-ODN) (5′-[…]-3′; SEQ ID NO:1) or antisense ODN (AS-ODN) (5′-[…]-3′; SEQ ID NO:2) (Yokoshiki et al., 1999) in PBS at a rate of 1 mg/rat/24 h.
Tissue blood. Rats were sacrificed at various times after SCI (n=5-11 rats/group), were perfused with heparinized saline to remove intravascular blood, and 5-mm segments of cord encompassing the lesion were homogenized and processed as described (Choudhri et al., 1997).

[2] = rat, in vivo
Procedure: as §1, §2

[3] = test system: recombinant MMP-2 and MMP-9; assay: Zymography of gelatinase activity of recombinant MMP; format: biochemical; conditions: glibenclamide 10 μM; MMP-inhibitor II 300 nM
Procedure: In post-ischemic reperfusion of CNS tissues, catastrophic failure of capillary integrity has been attributed to the action of matrix metalloproteinases (MMP) (Wang et al., 2004).
Zymography of recombinant MMP-2 and MMP-9 (Sigma) was performed as described (Sumii and Lo, 2002).

rats with percussion-TBI = assay: Percussion-TBI rats: extravasated blood (progressive secondary hemorrhage); format: in vivo, rat
Description: Young adult male Long-Evans rats, 240-280 gm, were studied. Rats were anesthetized (Ketamine and Xylazine) and physiological parameters including temperature and blood gases were maintained within appropriate physiological ranges. With the head fixed in a stereotaxic frame, a 6-mm circular craniectomy was created abutting the sagittal and lambdoidal sutures. A posterior location was chosen to emphasize damage to underlying hippocampus (Vink et al., 2001; Floyd et al., 2002). […] Sham controls underwent craniectomy without percussion.

[4] = test system: rodent models of ischemic stroke; conditions: cited from earlier work
[5] = model of malignant cerebral edema

## COc1ccc(Cl)cc1C(=O)NCCc1ccc(S(=O)(=O)NC(=O)NC2CCCCC2)cc1 [glibenclamide]
[1]; 24 h post-SCI, vs vehicle
  hemorrhage in cord on inspection: visibly less hemorrhage
[1]; during the 24 h after SCI
  extravasated blood in tissue homogenates: little increase in extravasated blood
[2]
  serum glucose: 242 ± 14 mg/dL
[3]
  gelatinase activity of recombinant MMP: the same; also recorded: not affected
Rats with percussion-TBI; 6 and 24 hr post-TBI, vs vehicle
  extravasated blood at later times: prevented further increases in blood
Rats with percussion-TBI; ½ hr post-TBI
  volume of blood in brain homogenate: did not affect
[4]; [5]
  reduction of cerebral edema (excess water): half
  reduction of mortality: half
[4]; stroke induced by thromboemboli
  reduction of lesion volume: half
